Measured values from patent US20160361250A1, “ACTIVE INGREDIENTS STIMULATING TYPE 2 AND/OR TYPE 3 HUMAN BETA-DEFENSINS AND COSMETIC OR PHARMACEUTICAL COMPOSITIONS CONTAINING SUCH ACTIVE INGREDIENTS” (BASF Beauty Care Solutions France S.A.S., priority 2002, published 2016).

Legend:
hBD2 [1] = assay: Qualitative RT-PCR of hBD2 expression, 1st step of the screening method; assay type: cell-based; conditions: normal human keratinocytes, 16 h
Procedure: (§1) A 1% concentration of the actives is tested on normal human keratinocytes, as a monolayer, on 96-well culture plates, in a specific medium enriched with calcium and free of serum (final concentration 1.7 mM).
(§2) At 80% confluence, cells are contacted with the actives (1 active per well) for 16 h. An untreated control and 2 positive controls (TNFα 100 ng/mL for hBD2 and IFNγ 100 ng/mL for hBD3) are set up in parallel on the same culture plate.
(§3) After 16 h, the supernatants are collected and cells are dry frozen at −80° C. after rinsing in PBS.
(§4) Total RNA are extracted using a 96-well extraction kit on silica columns and assayed using a 96-well spectrophotometer at 260 and 280 nm. RNA are diluted to 5 ng/mL.
(§5) Qualitative one-step RT-PCR is performed on 50 ng of initial RNA in 96 wells, on actin, hBD2 and hBD3. The primers are used at a concentration of 0.5 μM and arc taken from the literature:—hBD2: sense: 5′-[…]-3′; hBD2 antisense 5′-[…]-3′ (Harder J. et al., A peptide antibiotic from human skin. Nature 1997; 387 : 861); hBD3 sense: 5′-[…]-3′; hBD3 antisense: 5′-[…]-3′; actin sense: 5′-[…]-3′; actin antisense: 5′-[…]-3′ (Harder J. et al., Isolation and characterization of human β-defensin-3, a novel human inducible peptide antibiotic. J Biol Chem 2001, 276 : 5707-5713).
(§6) Samples are placed in a thermocycler and follow a common amplification program: 50° C., 30 min; 94° C., 2 min, (94° C., 30 s; 60° C., 30 s; 68° C., 30 s), 32 cycles for the defensins and 30 cycles for actin; 72° C., 10 min; 14° C., infinite.
(§7) After amplification, the products are mixed at a rate of 3 μL of actin amplification products+6 μL of hBD2 amplification products+6 μL of hBD3 amplification products. 5 μL of a mixture of charge buffer and water (⅔) are added and the final 20 μL are deposited on 2% premoulded agarose gel. The samples migrate in 30 minutes and the bands are visualised under UV in a dark room then digitally photographed.
(§8) Photos of the gels are analysed by image processing software which quantifies the intensity of the bands. As the basal level of defensin expression (untreated control) is not detectable, the intensity ratios of the hBD2/actin and hBD3/actin bands can be compared, for example with those obtained for the positive control (treated with TNFα for hBD2 and IFNγ for hBD3) and indicate any stimulation of the expression of the β-defensin in question
(§9) Since the basal level of defensin expression is generally not detectable, stimulation of hBD2 and hBD3 is expressed as a percentage of the positive controls (TNFα for hBD2 and IFNγ for hBD3). IL8 and MIP3α levels are given as pg/mL/RNA concentration (in ng/μL).

hBD3 [2] = assay: Qualitative RT-PCR of hBD3 expression, 1st step of the screening method; assay type: cell-based; conditions: normal human keratinocytes, 16 h
Procedure: as §2, §3, §4, §5, §6, §7, §8, §9

MIP3α [3] = assay: ELISA of MIP3α secreted into the culture medium, 1st step; assay type: cell-based, human; conditions: 100 μg/mL; keratinocyte supernatant, 16 h
Procedure: (§10) At the end of this first step, the actives having exerted an effect on β-defensin expression are selected and the supernatants corresponding to these actives are then tested using an ELISA kit in order to determine the levels of MIP3α, IL1 and IL8 secreted into the culture medium under the effect of the actives. The levels are then referred to the RNA concentration assayed in each well in order to compare results with each other.
as §9

IL8 [4] = assay: ELISA of IL8 secreted into the culture medium, 1st step; assay type: cell-based, human; conditions: 100 μg/mL; keratinocyte supernatant, 16 h
Procedure: as §10, §9

hBD2 [5] = assay: Quantitative RT-PCR of hBD2 expression, 2nd step (dose-effect); assay type: cell-based, human; conditions: 16 h, untreated control = 100%
Procedure: (§11) The actives are then tested on 5 concentrations (from 0.001% to max viability) in quadruplicate on normal human keratinocytes as a monolayer on 96-well culture plates, in a specific medium enriched with calcium and free of serum (CaCl2 1.7 mM) (same conditions as in example 1).
as §3
(§12) Total RNA are extracted using a 96-well extraction kit on silica columns and assayed using a 96-well spectrophotometer at 260 and 280 nm. RNA are diluted to 5 ng/μL.
(§13) Quantitative RT-PCR in 96 wells on actin, hBD2 and hBD3 is initially carried out on 50 ng of RNA, using a one-step kit containing Sybrgreen, in a fluorescence thermocycler with the same primers as previously (0.5 μM). The amplification program is as follows: 50° C., 30 min; 94° C., 15 min; (94° C., 15 s; 60° C., 30 s; 72° C., 30 s)×50 cycles; 90° C., 1 min; 30° C., 1 min; 50° C. to 95° C. (10 s every ° C.); 14° C., infinite.
(§14) A study of the fusion graphs makes it possible to verify the specificity of amplified products. The fluorescence graph as a function of the number of cycles gives the C(T) value corresponding to the number of cycles needed to obtain initiation of the fluorescence signal. The more an mRNA is expressed, the lower the C(T) value. Calculation of Sgene=(½)^C(T) for each RNA takes into consideration the exponential increase in the number of copies during amplification. The Sgene hBD2/Sgene actin and Sgene hBD3/Sgene actin ratios can be compared with those of the untreated control to give the percentage stimulation produced.
(§15) Quantitative RT-PCR makes it possible to obtain a basal value for the defensin expression for untreated controls. The results are therefore expressed as a percentage of the control. IL8, IL1 and MIP3 cytokine levels are given as pg/mL/RNA concentration (in ng/μL).
(§16) In the same way as in example 2, retinoic acid and retinol were tested for their capacity to stimulate hBD2 and/or hBD3.

hBD3 [6] = assay: Quantitative RT-PCR of hBD3 expression, 2nd step (dose-effect); assay type: cell-based, human; conditions: 16 h, untreated control = 100%
Procedure: as §11, §3, §12, §13, §14, §15, §16

MIP3α [7] = assay: ELISA of MIP3α in supernatants, 2nd step; assay type: cell-based, human; conditions: supernatant, 16 h
Procedure: (§17) The supernatants of the actives, whose capacity to induce defensins has been confirmed, are tested using an ELISA kit in order to assay MIP3α, IL8 and IL1α levels. These assays are performed on the same supernatant (200 μL) by carrying out a series dilution (by 1.5 to assay MIP3α and IL8, then by 2 to assay IL1). The levels are then referred to the RNA concentration assayed in each well in order to compare results with each other.
as §15

IL8 [8] = assay: ELISA of IL8 in supernatants, 2nd step; assay type: cell-based, human; conditions: supernatant, 16 h
Procedure: as §17, §15

IL1α = assay: ELISA of IL1α in supernatants, 2nd step; assay type: cell-based, human; conditions: supernatant, 16 h
Procedure: as §17, §15

hBD2 and/or hBD3 [9] = assay: 1st step of the screening method, overall outcome (defensin RT-PCR plus MIP3α/IL8 ELISA); assay type: cell-based, human
Procedure: as §1, §2, §3, §4
as §5, with “5707-5713). […]” for “5707-5713).”
Photos of the gels are analysed by image processing software which quantifies the intensity of the bands. […]

hBD2 and/or hBD3 [10] = assay: 2nd step of the screening method, overall outcome (quantitative RT-PCR plus MIP3α/IL8/IL1α ELISA); assay type: cell-based, human
Procedure: The actives which best satisfied the criteria for the first step undergo a dose-effect analysis.
as §11, §3, §12, §13, §14
as §17, with “The levels are then referred to the RNA concentration assayed in each well in order to compare results with each other.” left out

For `CC/C=C\C[C@H]1C(=O)CC[C@@H]1CC(=O)O` [Jasmonic Acid], the “HBD2 expression, percentage of the positive control (TNFα)” value (hBD2 [1]; 100 μg/mL) was 7%, the “HBD3 expression, percentage of the positive control (IFNγ)” value (hBD3 [2]; 100 μg/mL) was 0% and the MIP3α level (MIP3α [3]) was 6 pg/mL/RNA concentration (in ng/μL). For the same molecule, the IL8 level (IL8 [4]) was 25.3 pg/mL/RNA concentration (in ng/μL), the “hBD2 expression, percentage of the control” value (hBD2 [5]; conc. 100 μg/mL) was 86% and the “hBD2 expression, percentage of the control” value (hBD2 [5]; conc. 500 μg/mL) was 134%. For the same molecule, the “hBD3 expression, percentage of the control” value (hBD3 [6]; conc. 100 μg/mL) was 477%, the “hBD3 expression, percentage of the control” value (hBD3 [6]; conc. 500 μg/mL) was 26919% and the MIP3α level (MIP3α [7]; conc. 100 μg/mL) was 4.6 pg/mL/RNA concentration (in ng/μL). For the same molecule, the MIP3α level (MIP3α [7]; conc. 500 μg/mL) was 13.6 pg/mL/RNA concentration (in ng/μL), the IL8 level (IL8 [8]; conc. 100 μg/mL) was 37.9 pg/mL/RNA concentration (in ng/μL) and the IL8 level (IL8 [8]; conc. 500 μg/mL) was 103.3 pg/mL/RNA concentration (in ng/μL). For the same molecule, the IL1α level (IL1α; conc. 100 μg/mL) was 31.2 pg/mL/RNA concentration (in ng/μL), the IL1α level (IL1α; conc. 500 μg/mL) was 97.1 pg/mL/RNA concentration (in ng/μL) and the “satisfying the criteria for the first step (in words)” value (hBD2 and/or hBD3 [9]; concentrations of Tables I and II) was “stimulate hBD2 and/or hBD3 without triggering the expression of MIP3 and IL8 cytokines”. The “induction of defensins 2 and/or 3 (in words)” value (hBD2 and/or hBD3 [10]; jasmonic acid 100 μg/mL, α-MSH as in Table III) was “capable of inducing defensins 2 and/or 3” and the “satisfying the criteria of the invention (in words)” value (hBD2 and/or hBD3 [10]; second step) was “stimulate hBD2 and/or hBD3 without triggering the expression of MIP3, IL8 or IL1 cytokines”.

In the case of `CC[C@H](C)[C@H](N)C(=O)O` [L-Isoleucine], the “HBD2 expression, percentage of the positive control (TNFα)” value (hBD2 [1]; 10 μg/mL) is reported as 0%, the “HBD3 expression, percentage of the positive control (IFNγ)” value (hBD3 [2]; 10 μg/mL) is reported as 0% and the “hBD2 expression, percentage of the control” value (hBD2 [5]; conc. 3.125 μg/mL) is reported as 110%. For the same molecule, the “hBD2 expression, percentage of the control” value (hBD2 [5]; conc. 6.25 μg/mL) was 107%, the “hBD2 expression, percentage of the control” value (hBD2 [5]; conc. 12.5 μg/mL) was 95% and the “hBD2 expression, percentage of the control” value (hBD2 [5]; conc. 25 μg/mL) was 110%. For the same molecule, the “hBD3 expression, percentage of the control” value (hBD3 [6]; conc. 3.125 μg/mL) was 89%, the “hBD3 expression, percentage of the control” value (hBD3 [6]; conc. 6.25 μg/mL) was 94% and the “hBD3 expression, percentage of the control” value (hBD3 [6]; conc. 12.5 μg/mL) was 101%. The “hBD3 expression, percentage of the control” value (hBD3 [6]; conc. 25 μg/mL) was 106%, the MIP3α level (MIP3α [7]; conc. 3.125 μg/mL) was 5.2 pg/mL/RNA concentration (in ng/μL) and the MIP3α level (MIP3α [7]; conc. 6.25 μg/mL) was 4.9 pg/mL/RNA concentration (in ng/μL). The MIP3α level (MIP3α [7]; conc. 12.5 μg/mL) was 5.9 pg/mL/RNA concentration (in ng/μL), the MIP3α level (MIP3α [7]; conc. 25 μg/mL) was 4.5 pg/mL/RNA concentration (in ng/μL) and the IL8 level (IL8 [8]; conc. 3.125 μg/mL) was 36.9 pg/mL/RNA concentration (in ng/μL). The IL8 level (IL8 [8]; conc. 6.25 μg/mL) was 33.6 pg/mL/RNA concentration (in ng/μL), the IL8 level (IL8 [8]; conc. 12.5 μg/mL) was 42.2 pg/mL/RNA concentration (in ng/μL) and the IL8 level (IL8 [8]; conc. 25 μg/mL) was 35.1 pg/mL/RNA concentration (in ng/μL). The IL1α level (IL1α; conc. 3.125 μg/mL) was 21 pg/mL/RNA concentration (in ng/μL), the IL1α level (IL1α; conc. 6.25 μg/mL) was 22.3 pg/mL/RNA concentration (in ng/μL) and the IL1α level (IL1α; conc. 12.5 μg/mL) was 25.3 pg/mL/RNA concentration (in ng/μL). The IL1α level (IL1α; conc. 25 μg/mL) was 22.8 pg/mL/RNA concentration (in ng/μL), the “stimulation of human defensins 2 and 3 by qualitative RT-PCR (in words)” value (hBD2 and/or hBD3 [9]; first step) was “no significant stimulation of human defensins 2 and 3” and the “induction of hBD2 and hBD3 expression in normal human keratinocytes (in words)” value (hBD2 and/or hBD3 [10]; 3.125, 6.25, 12.5 and 25 μg/mL) was “has not been found capable of inducing hBD2 and hBD3 expression”.

B1: IFNγ: gamma interferon, positive control for hBD3 stimulation, 100 ng/mL (protein, UniProt P01579 24-161, looked up)
Interferon gamma: QDPYVKEAENLKKYFNAGHSDVADNGTLFLGILKNWKEESDRKIMQSQIVSFYFKLFKNFKDDQSIQKSVETIKEDMNVKFFNSNKKKRDDFEKLTNYSVTDLNVQRKAIHELIQVMAELSPAAKTGKRKRSQMLFRG
For B1, the “hBD2 expression, percentage of the control” value (hBD2 [5]; conc. 100 ng/mL) was 472%, the “hBD3 expression, percentage of the control” value (hBD3 [6]; conc. 100 ng/mL) was 4631% and the MIP3α level (MIP3α [7]; conc. 100 ng/mL) was 11.6 pg/mL/RNA concentration (in ng/μL). The IL8 level (IL8 [8]; conc. 100 ng/mL) was 100.5 pg/mL/RNA concentration (in ng/μL) and the IL1α level (IL1α; conc. 100 ng/mL) was 40.1 pg/mL/RNA concentration (in ng/μL).
